Test results: patent publication US8092790B2, “Methods of making formulations to affect insect behavior and/or bird behavior” (Bug Buster, Ltd., priority 2003, dated 2012)

Legend:
[1] = test system: mosquito (Aedes aegyptis); test: Mosquito repellency on human subject; format: in vivo
From the text: In these trials, DEET was provided in the commercially available product DEEP WOODS OFF™ repellent (S.C. Johnson & Son, Inc., Racine, Wis.), which has approximately 28.5% active ingredient; 1.5% other isomers and 70% inert ingredients.
In a first trial, a human subject was exposed to a mosquito (Aedes aegyptis) rich environment without application of the exemplary compound or DEET. Within less than one minute the subject was covered with the insects. In a second trial, the subject sprayed one unclothed arm with the exemplary compound at a rate of 0.00312% and the other unclothed arm with DEET at a concentration of 0.24%. The subject's head remained untreated. Upon returning to the test area, the subject's head was covered with the insects within one minute. […] In a third trial the subject, after removing the DEET from his/her body, reapplied the exemplary compound to unclothed arms, head and neck before returning to the test area. The subject returned to and remained in the test area for more than one hour without any of the insects landing on his/her arms, hands and head while numerous insects were observed on the clothed portions of his/her anatomy.

insects = test: Glue coated cardboard traps in a field; format: in vivo
Experimental: Trials were performed using an exemplary compound as part of a trapping device (e.g., a glue coated cardboard surface). Five traps were each treated with a 1 ml solution of 0.0156%, 0.03125%, 0.0625%, 0.125% and 0.25% methyl anthranilate, respectively. The treated traps were then placed at relatively random locations in a field. An untreated trap was placed adjacent to each treated trap and the number of insects adhered to each trap recorded as a function of time.

adult weevils = test: Exemplary compound on sunflowers previously sprayed with esfenvalerate, weevils emerging; format: in vivo
From the text: (§1) An exemplary compound, methyl anthranilate, was combined with long chain fatty acids. An exemplary method applied the mixture to fifteen maturing sunflowers in the interior of two fields that were previously sprayed with an insecticide, esfenvalerate (e.g., the insecticide product ASANA™). The mixture that included the exemplary compound was applied by spraying the mixture across the head of each flower (e.g., where seeds exist). The number of striped sunflower head moth larvae and weevils, emerging from the seeds, was recorded.

Thrips hawaiiensis = settings: in vivo; cited from earlier work
[2] = test system: Thaumatomyia glabra (Meigen) flies; settings: in vivo; cited from earlier work
[3] = test system: house flies (Drosophila melanogater); test: Three-section Petri dish choice test; format: in vivo
From the text: Colonies of house flies (Drosophila melanogater) were selected for subsequent placement in covered Petri dishes wherein each Petri dish was divided into three sections. One of the sections, a center section, was used as a control. An exemplary compound, methyl anthranilate (e.g., BIRDSHIELD™ at 0.006%) was applied to a piece of filter paper and placed in a first section while an […] (e.g., deionized water), was applied to another piece of filter paper and placed in second section. Flies were then released into the center control section and lids were placed on the Petri dishes.
More specifically, 100 captive flies were used and the sections were approximately equal in size, e.g., 33% of total space per section. Flies were released into the neutral zone of each Petri dish and monitored after 15 minutes and one hour.

T. coloratus = settings: in vivo; cited from earlier work
[4] = test system: striped sunflower head moth larvae; test: Exemplary compound on sunflowers previously sprayed with esfenvalerate, moth larvae emerging; format: in vivo
From the text: as §1

mites and spiders = test: Sunflower field application, other insects on treated sunflowers; format: in vivo; settings: BIRDSHIELD at 0.006%, approx. two weeks after ASANA
From the text: An insecticide, ASANA™, was applied to sunflowers. Approximately two weeks later, an exemplary compound, methyl anthranilate (e.g., BIRDSHIELD™ at 0.006%) was applied to the same sunflowers. […] This behavior caused the larvae to fall off of the flower portions of the sunflowers. In addition, the exemplary compound affected behavior of other insects on the treated sunflowers.

[5] = test system: striped sunflower head moth larvae; test: Exemplary compound applied after exemplary composition, sunflowers; settings: in vivo
From the text: An exemplary compound, methyl anthranilate, was combined with long chain fatty acids. The exemplary compound, as mixed with the fatty acids, was applied to three fields of maturing sunflowers. Each of the fields had previously been treated with an exemplary composition that included an exemplary compound, methyl anthranilate (approx. 4.5 oz per acre mixed with long chain fatty acids) and an insecticide, in this example, esfenvalerate (approx. 8 oz per acre using the insecticide product ASANA™). Ten flowers were randomly selected from the interior of each field and one-half of the seed heads were sprayed with DEET and one-half sprayed with the exemplary compound at a concentration of approximately 0.00312% methyl anthranilate, which was in a mixture that included long chain fatty acids. Spraying sprayed across the head of each flower. The number of striped sunflower head moth larvae, emerging from the seeds, was recorded.

Ceranisus menes = settings: in vivo; cited from earlier work
[6] = test system: corn ear worm (Heliothus zea); test: Crop field trials with lambda cyalothrin insecticide, corn ear worm larvae; format: in vivo
From the text: An exemplary compound, methyl anthranilate, was combined with fatty acid and applied to crop fields (again, this formulation will also repel at least some birds), contemporaneously, an insecticide having a pyrethrin, lambda cyalothrin, as an active ingredient was applied to crop fields (e.g., WARRIOR™).
In another trial, an insecticide that included a pyrethrin, lambda cyalothrin, was applied to crop fields (e.g., WARRIOR™). […] Later, an exemplary compound, methyl anthranilate, combined with a fatty acid, was applied to the same crop field. […] An exemplary composition included an exemplary compound, methyl anthranilate, fatty acid and an insecticide that included a pyrethrin, lambda cyalothrin, as an active ingredient (e.g., WARRIOR™). The exemplary composition was applied to crop fields.

**Q.** With `COC(=O)c1ccccc1N` [methyl anthranilate] as the molecule, how does the “effectiveness as mosquito repellent compared with DEET” value ([1]; at lower concentrations) read?
**A.** The value was “as effective as DEET”.

**Q.** What about the “mosquitoes on treated unclothed arm” value ([1]; second trial, methyl anthranilate 0.00312%, DEET 0.24%, untreated head covered within one minute) of the same molecule?
**A.** Its value is “No mosquitoes were found”.

**Q.** What about the “time in test area without insects landing on treated arms, hands and head” value ([1]; third trial) of the same molecule?
**A.** The value was “more than one”.

**Q.** What about the “number of insects adhered to trap” value (insects; 0.0156 percent, 1 min) of the same molecule?
**A.** The value was 3.

**Q.** And the “number of insects adhered to trap” value (insects; 0.0156 percent, 5 min)?
**A.** The value was 22.

**Q.** What about the “number of insects adhered to trap” value (insects; 0.0156 percent, 10 min) of the same molecule?
**A.** The value was 75.

**Q.** What about the “number of insects adhered to trap” value (insects; 0.0156 percent, 20 min) of the same molecule?
**A.** The value was >75.

**Q.** And the “number of insects adhered to trap” value (insects; 0.0313 percent, 1 min)?
**A.** The value was 5.

**Q.** And the “number of insects adhered to trap” value (insects; 0.0313 percent, 5 min)?
**A.** Its value is 15.

**Q.** What about the “number of insects adhered to trap” value (insects; 0.0313 percent, 10 min) of the same molecule?
**A.** Its value is 68.

**Q.** What about the “number of insects adhered to trap” value (insects; 0.0313 percent, 20 min) of the same molecule?
**A.** The value was >68.

**Q.** And the “number of insects adhered to trap” value (insects; 0.0625 percent, 1 min)?
**A.** The value was 7.

**Q.** And the “number of insects adhered to trap” value (insects; 0.0625 percent, 5 min)?
**A.** Its value is 35.

**Q.** What about the “number of insects adhered to trap” value (insects; 0.0625 percent, 10 min) of the same molecule?
**A.** Its value is 128.

**Q.** And the “number of insects adhered to trap” value (insects; 0.0625 percent, 20 min)?
**A.** The value was >128.

**Q.** And the “number of insects adhered to trap” value (insects; 0.1250 percent, 1 min)?
**A.** The value was 15.

**Q.** And the “number of insects adhered to trap” value (insects; 0.1250 percent, 5 min)?
**A.** The value was 62.

**Q.** What about the “number of insects adhered to trap” value (insects; 0.1250 percent, 10 min) of the same molecule?
**A.** The value was 256.

**Q.** What about the “number of insects adhered to trap” value (insects; 0.1250 percent, 20 min) of the same molecule?
**A.** Its value is >256.

**Q.** What about the “number of insects adhered to trap” value (insects; 0.2500 percent, 1 min) of the same molecule?
**A.** The value was 43.

**Q.** What about the “number of insects adhered to trap” value (insects; 0.2500 percent, 5 min) of the same molecule?
**A.** Its value is 84.

**Q.** What about the “number of insects adhered to trap” value (insects; 0.2500 percent, 10 min) of the same molecule?
**A.** The value was 346.

**Q.** And the “number of insects adhered to trap” value (insects; 0.2500 percent, 20 min)?
**A.** The value was >346.

**Q.** And the “Number of Adult Weevils, Mean” value (adult weevils; Field No 2)?
**A.** The value was 1.14.

**Q.** And the “Number of Adult Weevils, Total” value (adult weevils; Field No 2)?
**A.** Its value is 8.

**Q.** And the “Number of Adult Weevils, Mean” value (adult weevils; Field No. 1)?
**A.** The value was 0.43.

**Q.** What about the “Number of Adult Weevils, Total” value (adult weevils; Field No. 1) of the same molecule?
**A.** The value was 3.

**Q.** What about the “attraction of Thrips hawaiiensis” value (Thrips hawaiiensis) of the same molecule?
**A.** The value was “are attracted”.

**Q.** What about the “attraction of Thaumatomyia glabra flies” value [2] of the same molecule?
**A.** The value was “attractive”.

**Q.** And the “fly response to treated section” value ([3]; 0.006% on filter paper, within one hour)?
**A.** The value was “avoided the section treated with the exemplary compound”.

**Q.** And the “fly response to treated areas” value ([3]; approximately 0.00025%)?
**A.** Its value is “relatively neutral”.

**Q.** What about the “fly response to treated areas” value ([3]; approximately 0.0025%) of the same molecule?
**A.** Its value is “somewhat neutral”.

**Q.** What about the “fly response to treated areas” value ([3]; approximately 0.025%) of the same molecule?
**A.** Its value is “avoided the treated areas”.

**Q.** And the “fly response to treated areas” value ([3]; approximately 0.25%, 100 flies, monitored after 15 minutes and one hour)?
**A.** Its value is “avoided the treated areas”.

**Q.** What about the “attraction of T. coloratus” value (T. coloratus) of the same molecule?
**A.** The value was “are attracted”.

**Q.** And the “Number of Moth Larvae, Mean” value ([4]; Field No 2)?
**A.** Its value is 0.86.

**Q.** What about the “Number of Moth Larvae, Total” value ([4]; Field No 2) of the same molecule?
**A.** The value was 6.

**Q.** And the “Number of Moth Larvae, Mean” value ([4]; Field No. 1)?
**A.** Its value is 0.57.

**Q.** And the “Number of Moth Larvae, Total” value ([4]; Field No. 1)?
**A.** Its value is 4.

**Q.** What about the “drawing larvae and weevils out of the seeds” value ([4]; after the crop had been treated with the insecticide alone) of the same molecule?
**A.** Its value is “successful in drawing striped sunflower head math larvae out of the seeds”.

**Q.** What about the “behavior of mites and spiders on treated sunflowers” value (mites and spiders) of the same molecule?
**A.** Its value is “observed to appear from spaces between maturing seeds and to subsequently fall off the flower portion of the sunflowers”.

**Q.** And the “effectiveness when applied after an exemplary composition” value [5]?
**A.** The value was “high level of effectiveness”.

**Q.** And the “attraction of Ceranisus menes” value (Ceranisus menes)?
**A.** Its value is “are attracted”.

**Q.** What about the “corn ear worm larvae on the ground” value ([6]; combined with a fatty acid, applied later to field already treated with lambda cyalothrin, within a day) of the same molecule?
**A.** The value was “littered the ground”.

**Q.** What about the “corn ear worm larvae on the ground” value ([6]; combined with fatty acid, applied contemporaneously with lambda cyalothrin insecticide (WARRIOR), within a day of treatment) of the same molecule?
**A.** Its value is “littered the ground”.
